Assay results published in US7842856B2, “Herbicide resistance gene, compositions and methods” (The Board of Trustees of the University of Illinois, priority 2005, dated 2010).

Legend:
[1] = system: A. tuberculatus R (PPO inhibitor-resistant) parent; assay: Herbicide dose-response on whole plants, R parent; assay type: in vivo, Amaranthus tuberculatus (waterhemp); conditions: for GR50 (growth reduction by 50%) R: R line
[2] = system: A. tuberculatus F2 and backcross lines; assay: Inheritance of resistance: R or S response of F2 and backcross lines to lactofen; assay type: in vivo, Amaranthus tuberculatus
[3] = male F1(R) x female F1(R), lactofen 110 g ai ha^−1 plus 1% COC, 15 days after treatment, N 400
[4] = male F1(R) x female R, lactofen 110 g ai ha^−1, 15 days, N 200
[5] = male F1(R) x female S, lactofen 110 g ai ha^−1, 15 days, N 200
[6] = male F1(S) x female F1(S), lactofen 110 g ai ha^−1, 15 days, N 400
[7] = male F1(S) x female R, lactofen 110 g ai ha^−1, 15 days, N 200
[8] = male F1(S) x female S, lactofen 110 g ai ha^−1, 15 days, N 200

| SMILES | GR50 (growth reduction by 50%) R ([1]; 10 DAT) [g ai ha^−1] | GR50 (growth reduction by 50%) R ([1]; 15 DAT, dry weight vs control, plus 1% COC) [g ai ha^−1] | fold higher doses survived compared with S plants ([1]; lines homozygous for resistance vs S plants (FIG. 2; Table 2)) [fold] | Observed numbers R [2, 3] | Observed numbers S [2, 3] | Observed numbers R [2, 4] | Observed numbers S [2, 4] | Observed numbers R [2, 5] | Observed numbers S [2, 5] | Observed numbers R [2, 6] | Observed numbers S [2, 6] | Observed numbers R [2, 7] | Observed numbers S [2, 7] | Observed numbers R [2, 8] | Observed numbers S [2, 8] |
| --- | --- | --- | --- | --- | --- | --- | --- | --- | --- | --- | --- | --- | --- | --- | --- |
| CCOC(=O)C(C)OC(=O)c1cc(Oc2ccc(C(F)(F)F)cc2Cl)ccc1[N+](=O)[O-] (racemic) [Lactofen, (±)-2-ethoxy-1-methyl-2-oxoethyl 5-{2-chloro-4-(trifluoromethyl)phenoxy}-2-nitrobenzoate] | 2.9 | 21 | 53 | 297 | 103 | 200 | 0 | 98 | 102 | 304 | 96 | 200 | 0 | 109 | 91 |
| O=C(O)c1cc(Oc2ccc(C(F)(F)F)cc2Cl)ccc1[N+](=O)[O-] [Acifluorfen, 5-{2-chloro-4-(trifluoromethyl)phenoxy}-2-nitrobezoic acid] | 5.8 | – | – | – | – | – | – | – | – | – | – | – | – | – | – |
